Among the data in patent US7655453B2, “Recombinant Candida rugosa lipases” (Academia Sinica, priority 2001, dated 2010) are Km and Vmax values, retold here.

Assay type in all cases: biochemical
The target of assay [1] is Candida rugosa lipase 4 (LIP4), native, recombinant (Diutina rugosa, UniProt P32948). The experiment in a line: Kinetic parameters of hydrolysis of cholesteryl linoleate by LIP4. To be noted: 37° C., pH 7.0; LIP4 39 nM; average of three independent experiments. From the text: (§1) Construction of expression vectors The E. coli expression vectors pET23a-LIP4-S19 and pET23a-trx-LIP4-S19 were constructed as described in Tang et al. (2000) Protein Exp. Purif. 20: 308-313. Open-reading frames of LIP1, LIP2, LIP3, and LIP5 without the leader sequence were obtained by reverse transcription-polymerase chain reaction (RT-PCR). See Longhi et al. (1992) Biochim. Biophy. […] The chimeric DNA sequences were constructed by replacing the SphI(184)-BstXI(304) restriction DNA fragment of LIP4 with the corresponding fragments of LIP1, LIP2, LIP3, or LIP5, respectively. The resulting sequences encode mature chimeric C. rugosa lipases, denoted as TrX-LIP4/lid1, TrX-LIP4/lid2, TrX-LIP4/lid3, and TrX-LIP4/lid5, and were confirmed by DNA sequencing.
Chain of Candida rugosa lipase 4 (LIP4), native, recombinant (P32948 3-549, looked up, natural form): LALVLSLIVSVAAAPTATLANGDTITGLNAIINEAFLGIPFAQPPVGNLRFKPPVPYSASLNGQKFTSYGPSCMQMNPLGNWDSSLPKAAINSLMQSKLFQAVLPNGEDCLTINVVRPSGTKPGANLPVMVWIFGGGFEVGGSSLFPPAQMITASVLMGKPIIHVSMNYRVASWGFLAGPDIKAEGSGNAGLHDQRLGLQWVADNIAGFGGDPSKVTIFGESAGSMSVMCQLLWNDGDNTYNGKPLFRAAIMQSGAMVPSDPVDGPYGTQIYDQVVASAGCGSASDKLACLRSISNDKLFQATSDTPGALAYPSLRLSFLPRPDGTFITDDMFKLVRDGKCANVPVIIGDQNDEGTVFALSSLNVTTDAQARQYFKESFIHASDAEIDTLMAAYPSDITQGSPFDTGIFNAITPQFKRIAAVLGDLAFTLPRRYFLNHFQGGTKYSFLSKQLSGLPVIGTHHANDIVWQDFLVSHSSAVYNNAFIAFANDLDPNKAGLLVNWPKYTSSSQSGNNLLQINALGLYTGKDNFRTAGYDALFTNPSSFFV
(§2) Preparation of recombinant LIP4 from E. coli. E. coli strain AD494(DE3) (Novagen, Milwaukee, Wis.) harboring recombinant plasmid was grown overnight at 37° C. in Luria-Bertani (LB) broth supplemented with 50 μg/mL ampicillin and 15 μg/mL kanamycin. The cells were then diluted 20-fold into fresh medium and incubated with shaking at 25° C. After adding IPTG to give a final concentration of 0.05 mM, the cells were incubated at 10° C. until OD600 reached 1.0.
(§3) Purification of recombinant LIP4. After induction, the AD494(DE3) transformants were harvested by centrifugation at 4000 g and 4° C. for 10 min. […]

Assay [2] deals with Candida rugosa lipase 4 chimera Trx-LIP4/lid1 (lid region residues 63-94 of LIP4 exchanged with that of LIP1; thioredoxin fusion). The assay can be described thus: Kinetic parameters of hydrolysis of cholesteryl linoleate by Trx-LIP4/lid1. To be noted: 37° C., pH 7.0; Trx-LIP4/lid1 11 nM; average of three independent experiments.
Source text: as §1, §2, §3

Assay [3] has as its system Candida rugosa lipase 4 chimera Trx-LIP4/lid3 (lid region residues 63-94 of LIP4 exchanged with that of LIP3; thioredoxin fusion). The assay can be described thus: Kinetic parameters of hydrolysis of cholesteryl linoleate by Trx-LIP4/lid3. To be noted: 37° C., pH 7.0; Trx-LIP4/lid3 58 nM; average of three independent experiments.
Source text: as §1, §2, §3

The test system of assay [4] is Candida rugosa lipase 4 chimera Trx-LIP4/lid5 (lid region residues 63-94 of LIP4 exchanged with that of LIP5; thioredoxin fusion). The assay can be described thus: Kinetic parameters of hydrolysis of cholesteryl linoleate by Trx-LIP4/lid5. To be noted: 37° C., pH 7.0; Trx-LIP4/lid5 66 nM; average of three independent experiments.
Source text: as §1, §2, §3

For assay [5], the system named is Candida rugosa lipase 4 chimera Trx-LIP4/lid2 (lid region residues 63-94 of LIP4 exchanged with that of LIP2; thioredoxin fusion). The experiment in a line: Kinetic parameters of hydrolysis of cholesteryl linoleate by Trx-LIP4/lid2. To be noted: 37° C., pH 7.0; Trx-LIP4/lid2 86 nM; average of three independent experiments.
Source text: as §1, §2, §3

Molecules are shown by their SMILES.

Broadly, the Km is the concentration of substrate that gives half-maximal velocity. On to `CCCCC/C=C\C/C=C\CCCCCCCC(=O)O[C@H]1CC[C@@]2(C)C(=CC[C@H]3[C@@H]4CC[C@H]([C@H](C)CCCC(C)C)[C@@]4(C)CC[C@@H]32)C1` [cholesteryl linoleate], for which the Km came out at 41 ± 5 µM in assay [1]; 103 ± 5 µM in assay [2]; 46 ± 1 µM in assay [3]; 34 ± 1 µM in assay [4]; 74 ± 3 µM in assay [5]. Moreover, the Vmax in assay [2] was 28 ± 1 10^−3 μmol/min/mg; in assay [3], 231 ± 14 10^−3 μmol/min/mg; in assay [4] it was 70 ± 4.8 10^−3 μmol/min/mg; in assay [5], 1851 ± 24 10^−3 μmol/min/mg.
